Measured values from publication PMC10883997, “Multiparametric in vitro and in vivo analysis of the safety profile of self-assembling peptides” (Scientific Reports, 2024).
The star is where a group is joined. Biotin = O=C1N[C@H]2[C@H](CS[C@H]2CCCCC(=O)*)N1

Legend:
[1] = system: female Sprague–Dawley rats; assay: In vivo acute systemic toxicity of SAPs, subcutaneous injection; set-up: species or system Rattus norvegicus; conditions: for Body weights at the beginning of the experiment (means) / Body weight at the end of the experiment (means): single s.c. injection 10 mL/kg, mean ± SD, n = 5; for Body weights at the beginning of the experiment (means): day 0; for Body weight at the end of the experiment (means): day 5
Protocol: The general guidance from the ISO10993 to Biological evaluation of medical devices was followed. Animals were housed in plastic cages with free access to drinking water and a pelleted basal diet under controlled conditions of temperature (22 °C ± 3 °C), humidity (50 ± 10%) and light (12/12 h light/dark cycle). Rats were quarantined for the first 7 days and randomly divided into experimental and control groups. All animals were bred and maintained at CIBA (Biomedical Research Center of Aragon; Department of Experimental Surgery). Animal experimentation was approved by the Ethics Committee for Animal Experimentation from the University of Zaragoza (protocol number PI31/22), and all authors complied with the ARRIVE guidelines.SAPs or electrospun mats, empty micro-channels, and HS-filled micro-channels were subcutaneously administered to female Sprague–Dawley rats (Rattus norvegicus) 7 weeks old, non-pregnant, and nulliparous. The concentration of each SAP was: HS: 1%, 68: 3%, 46: 5%, C1: 3%, 65L: 3% and B42: 1%. On the day before administration, the animals were weighed, and the hair of their thoracic back was shaved. On day 1, the different SAPs were administered in one single dose by subcutaneous injection to each rat corresponding to each group. To devices, a skin incision of about 1 cm and subcutaneous dissection were performed under sterile conditions. Then, the products provided were introduced into the subcutaneous space, one piece per animal. Animals were weighed. Animals were euthanized by trained personnel using medical-grade Carbon dioxide (CO2). CO2 inhalation is the most common method of euthanasia used for small animals (i.e., mice, rats, guinea pigs, and hamsters). It is considered an acceptable euthanasia agent for small animals when properly administered. It was accepted by the Ethics Committee for Animal Experimentation from the University of Zaragoza (protocol number PI31/22). For histological assessment, lung, liver, spleen, kidneys, and duodenum were removed from rats, fixed with 4% paraformaldehyde, and embedded in paraffin. Sections from these samples were stained with hematoxylin and eosin (H&E). Blood samples were drawn at the end of the study by cardiac puncture. They were analysed with VetScan V2.
Data are expressed by mean ± standard deviation of the mean. Body weight comparison between groups was assessed using the repeated measures two-way ANOVA test. Bonferroni posthoc multiple comparisons were also used. Analysis of biochemical parameters was made with one-way ANOVA. They were performed using GraphPad Prism 8 (8.0.2).

[2] = system: Mouse Embryonic Fibroblasts (MEFs); assay: Scratch wound (wound healing) assay, fibroblasts; format: cell-based; conditions: MEF fibroblasts, 0.01 mg/mL, IncuCyte scan every 4 h; three independent experiments
Protocol: Prior to initiating the assay, cells were grown to confluence in a 96-well plate at 37 °C in an atmosphere of 5% CO2 and, with the help of a 96-pin IncuCyte® Wound Maker simultaneously created precise and reproducible wounds in all wells of a 96-well plate by gently removing the cells from the confluent monolayer. After wounding, immediately aspirate the media from each well and wash the cells twice with culture media (100 µL/well). After washing, 100 µL of media containing 0.01 mg/mL of the appropriate agent was added to the corresponding well, and the plate was placed inside the IncuCyte. Assay plates were then equilibrated within the IncuCyte® for a minimum of 15 min before the first scan. The software was set to scan the plate every 4 h for migration assays.

[3] = system: TK6 human lymphoblastoid cell line; assay: Thymidine kinase gene mutation assay (TK GMA); format: cell-based; conditions: TK6 cells, 4 h exposure, negative control 5.4 × 10^–6
Protocol: (§1) The general guidance from OECD TG 487 and 490 were followed[26],[41]. TK6 cell suspensions were treated with serially diluted SAPs molecules at 37 °C for 4 h, washed and resuspended in fresh medium, and cultured in new flasks for the MN and TK assays. We conducted the MN test and the TK mutation assay 48 h and 72 h later, respectively.
To measure genotoxicity, cells were subcultured at a maximum density of 2.5 × 10^5 cells/mL (at most 20 × 0^6 cells) for 3 additional days to allow phenotypic expression of the TK gene prior to mutant selection. Forty-eight hours after treatment, the cells were prepared for the MN assay. […] At least 2000 intact cells for each treatment were examined, and the cells containing MN were scored. Cells containing one or more micronuclei were recorded as micronucleated cells. […] The MN frequencies between non-treated and treated cells and the concentration–response relationship were statistically analyzed. […]
The cultures were maintained for another 24 h to allow phenotypic expression prior to plating for TK assay to determine the mutant fractions. […] Mutation frequencies (MFs) were finally calculated from cells grown in TFT selection medium or non-selection medium (for 7 days) via the Poisson distribution method. […] Changes in MFs relative to the negative controls (fold-change) were calculated and expressed graphically.

[4] = system: TK6 human lymphoblastoid cell line; assay: In vitro micronucleus (MN) assay; format: cell-based; conditions: 4 h exposure, scored 48 h after exposure, 2000 cells per culture, three independent experiments
Protocol: as §1
To measure genotoxicity, cells were subcultured at a maximum density of 2.5 × 10^5 cells/mL (at most 20 × 0^6 cells) for 3 additional days to allow phenotypic expression of the TK gene prior to mutant selection. Forty-eight hours after treatment, the cells were prepared for the MN assay. Briefly, a small portion of cell culture from the flask was transferred to a 15 mL tube and centrifuged at 1200 rpm for 5 min at RT. The supernatant was then removed, and the pelleted cells were resuspended in PBS and placed in a cytospin funnel where cells were cytospun for 4 min at 900 rpm on microscope coverslips. A Diff-Quik staining was performed for microscope scoring. At least 2000 intact cells for each treatment were examined, and the cells containing MN were scored. Cells containing one or more micronuclei were recorded as micronucleated cells. […] The MN frequencies between non-treated and treated cells and the concentration–response relationship were statistically analyzed. […]

[5] = rat blood at day 5, VetScan V2, one-way ANOVA, within expected reference values

Compound	Body weights at the beginning of the experiment (means) ([1]; rats) [g]	Body weight at the end of the experiment (means) ([1]; rats) [g]	globulin blood tests (GLOB) compared with the control group [1, 5]	cell migration versus control (area under relative wound density % vs time curve) [2]	mutant frequency (MF) ([3]; Mit C 8.3 µg/mL (positive control))	mutant frequency (MF) ([3]; Mit C 25 µg/mL (positive control))	percentage of micronucleated cells versus negative control [4]	Sodium blood test (NA+) compared with the control group [1, 5]	albumin (ALB) levels compared with the control group ([1]; rat blood, cardiac puncture at day 5, VetScan V2, one-way ANOVA, all group means incl. control slightly above reference)	body weight evolution versus control group ([1]; rats, s.c. 10 mL/kg, days 0, 2, 5, two-way ANOVA, p = 0.03, no significant change at single time points)
Biotin-GGGAFASAKA-NH2 [B42]	243.8 ± 9.10	260.8 ± 10.9								
FAQRVPPGGG(LDLK)3-CONH2 [compound 46]	250.5 ± 9.10	265.2 ± 8.20	increased	reduced cell migration						
CO[C@@]12[C@H](COC(N)=O)C3=C(C(=O)C(C)=C(N)C3=O)N1C[C@@H]1N[C@@H]12 [Mit C, Mitomycin C]					14.6 × 10^–6	175.3 × 10^–6	significant increase			
Ac-FAQRVPPGGG(LDLD)3-CONH2 [compound 68]	238.1 ± 8.05	247.9 ± 7.60						increased	Significant higher	significantly different
